The results in this text go back to US11123355B2, “Antiviral benzyl-amine phosphodiamide compounds” (Merck Sharp & Dohme Corp., priority 2016, dated 2021).

The assay deals with HIV-1 (H9/IIB strain). Put plainly: Multiple Round HIV-1 Infection Assay (Viking Assay) in MT4-GFP cells. The class given is cell-based. The note with it: inhibition of reproductive ratio R0. Here is the method:
Assessing antiviral potency in a Multiple Round HIV-1 Infection Assay (Viking Assay) The antiviral activity of the tenofovir prodrugs of the Examples herein was assessed in an assay that measures the rate of replication of HIV in cell culture, termed the Viking assay (VIral KINetics in Green cells) and performed as follows. HIV-1 replication was monitored using MT4-gag-GFP clone D3 (hereafter designated MT4-GFP), which are MT-4 cells modified to harbor a GFP reporter gene, the expression of which is dependent on the HIV-1 expressed proteins tat and rev. Productive infection of an MT4-GFP cell with HIV-1 results in GFP expression approximately 24 h post-infection. MT4-GFP cells were maintained at 37° C./5% CO2/90% relative humidity in RPMI 1640 supplemented with 10/o fetal bovine serum, 100 U/ml penicillin/streptomycin, and 400 μg/ml G418 to maintain the reporter gene. For infections, MT4-GFP cells were placed in the same medium lacking G418 and infected overnight with HIV-1 (H9/IIB strain) virus at an approximate multiplicity of infection of 0.01 in the same incubation conditions. Cells were then washed and re-suspended in either RPMI 1640 supplemented with 10% or 50% normal human serum (NHS) at 1.6×10^5 cells/mL (10% NHS or 50% NHS, respectively). Compound plates were prepared by dispensing compounds dissolved in DMSO into wells of 384 well poly-D-lysine-coated plates (0.2 μl/well) using an ECHO acoustic dispenser. Each compound was tested in a 10-point serial 3-fold dilution (typical final concentrations: 8.4 μM-0.42 nM). Controls included no inhibitor (DMSO only) and a combination of three antiviral agents (efavirenz, indinavir, an in-house integrase strand transfer inhibitor at final concentrations of 4 μM each). Cells were added (50 μL/well) to compound plates and the infected cells were maintained at 37° C./5% CO2/90% relative humidity.
Infected cells were quantified at two time points, ˜48 h and ˜72 h post-infection, by counting the number of green cells in each well using an Acumen eX3 scanner. The increase in the number of green cells over ˜24 h period gives the reproductive ratio, R0, which is typically 5-15 and has been shown experimentally to be in logarithmic phase (data not shown). Inhibition of R0 is calculated for each well, and IC50s determined by non-linear 4-parameter curve fitting.

Where [1] appears, read: MT4-GFP cells infected with HIV-1, 10% normal human serum, read-out: Viking, IC50 (10% NHS).
Setting [2] is: MT4-GFP cells infected with HIV-1, 50% normal human serum, read-out: Viking, IC50 (50% NHS).
Where [3] appears, read: Human immunodeficiency virus 1, MT4-GFP cells infected with HIV-1, 10% normal human serum, read-out: Viking, IC50 (10% NHS).
The mark [4] stands for this setting: Human immunodeficiency virus 1, MT4-GFP cells infected with HIV-1, 50% normal human serum, read-out: Viking, IC50 (50% NHS).

Read-outs that look alike come from different tables or passages of the source.

What is called IC50 is the concentration at which inhibition is half-maximal. With `CC(C)OC(=O)C(C)(C)NP(=O)(CO[C@H](C)Cn1cnc2c(N)ncnc21)N[C@H](C)c1ccc(OC(F)(F)F)cc1` (stereo partly drawn) [Example 34A, isopropyl 2-(((R)-((((R)-1-(6-amino-9H-purin-9-yl)propan-2-yl)oxy)methyl)(((R)-1-(4-(trifluoromethoxy)phenyl)ethyl)amino)phos-phoryl)amino)-2-methylpropanoate and isopropyl 2-(((S)-((((R)-1-(6-amino-9H-purin-9-yl)propan-2-yl)oxy)methyl)(((R)-1-(4-(trifluoromethoxy)phenyl)ethyl)amino)phos-phoryl)amino)-2-methylpropanoate], the IC50 turned out to be 760 nM under setting [1] and 4200 nM under setting [2].

Take “propyl 2-(((R)-((((R)-1-(6-amino-9H-purin- 9-yl)propan-2-yl)oxy)methyl)(((S)-1-(p- tolyl)ethyl)amino)phosphoryl)amino)-2- methylpropanoate and propyl 2-(((S)-((((R)-1-(6-amino-9H-purin- 9-yl)propan-2-yl)oxy)methyl)(((S)-1-(p- tolyl)ethyl)amino)phosphoryl)amino)-2- methylpropanoate [Example 18A]”: the IC50 is 13 nM under setting [1] and 140 nM under setting [2].

For `CCCOC(=O)C(C)(C)NP(=O)(CO[C@H](C)Cn1cnc2c(N)ncnc21)N[C@H](c1cccc(OC)c1)C(F)(F)F` (stereo partly drawn) [Example 25B, propyl 2-(((R)-((((R)-1-(6-amino-9H-purin-9-yl)propan-2-yl)oxy)methyl)(((R)-2,2,2-trifluoro-1-(3-methoxyphenyl)ethyl)amino)phosphoryl)a-mino)-2-methylpropanoate and propyl 2-(((S)-((((R)-1-(6-amino-9H-purin-9-yl)propan-2-yl)oxy)methyl)(((R)-2,2,2-trifluoro-1-(3-methoxyphenyl)ethyl)amino)phosphoryl)a-mino)-2-methylpropanoate], the IC50 turned out to be 15 nM under setting [1] and 97 nM under setting [2].

For the compound “propyl 2-(((R)-((((R)-1-(6-amino-9H-purin- 9-yl)propan-2-yl)oxy)methyl)(((R)-1-(p- tolyl)ethyl)amino)phosphoryl)amino)-2- methylpropanoate and propyl 2-(((S)-((((R)-1-(6-amino-9H-purin- 9-yl)propan-2-yl)oxy)methyl)(((R)-1-(p- tolyl)ethyl)amino)phosphoryl)amino)-2- methylpropanoate [Example 16A]”, the IC50 by setting is: under setting [1], 83 nM; under setting [2], 440 nM.

With `CCCOC(=O)C(C)(C)NP(=O)(CO[C@H](C)Cn1cnc2c(N)ncnc21)N[C@H](C)c1ccccc1OC` (stereo partly drawn) [Example 20A, propyl 2-(((R)-((((R)-1-(6-amino-9H-purin-9-yl)propan-2-yl)oxy)methyl)(((R)-1-(2-methoxyphenyl)ethyl)amino)phosphoryl)a-mino)-2-methylpropanoate and propyl 2-(((S)-((((R)-1-(6-amino-9H-purin-9-yl)propan-2-yl)oxy)methyl)(((R)-1-(2-methoxyphenyl)ethyl)amino)phosphoryl)a-mino)-2-methylpropanoate], the IC50 was determined as 61 nM under setting [1] and 590 nM under setting [2].

With `CCCOC(=O)C(C)(C)NP(=O)(CO[C@H](C)Cn1cnc2c(N)ncnc21)N[C@@H](C)c1ccc(Cl)cc1` (stereo partly drawn) [Example 13B, propyl 2-(((R)-((((R)-1-(6-amino-9H-purin-9-yl)propan-2-yl)oxy)methyl)(((S)-1-(4-chlorophenyl)ethyl)amino)phosphoryl)ami-no)-2-methylpropanoate and propyl 2-(((S)-((((R)-1-(6-amino-9H-purin-9-yl)propan-2-yl)oxy)methyl)(((S)-1-(4-chlorophenyl)ethyl)amino)phosphoryl)ami-no)-2-methylpropanoate], the IC50 runs as follows: under setting [1], 73 nM; under setting [2], 310 nM.

Turning to `CCCOC(=O)C(C)(C)NP(=O)(CO[C@H](C)Cn1cnc2c(N)ncnc21)N(C)[C@H](C)c1ccc(Cl)cc1` (stereo partly drawn) [Example 2A, propyl 2-(((R)-((((R)-1-(6-amino-9H-purin-9-yl)propan-2-yl)oxy)methyl(((R)-1-(4-chlorophenyl)ethyl)(methyl)amino)phosphonyl)amino)-2-methylpropanoate and propyl 2-(((S)-((((R)-1-(6-amino-9H-purin-9-yl)propan-2-yl)oxy)methyl)(((R)-1-(4-chlorophenyl)ethyl)(methyl)amino)phosphoryl)amino)-2-methylpropanoate], the IC50 under setting [3] is 43 nM and the IC50 under setting [4] stood at 130 nM.

As to `CC(C)OC(=O)C(C)(C)N[P@@](=O)(CO[C@H](C)Cn1cnc2c(N)ncnc21)NC1(c2ccc(Cl)cc2)CC1` [Example 37A, isopropyl 2-(((R)-((((R)-1-(6-amino-9H-purin-9-yl)propan-2-yl)oxy)methyl)((1-(4-chlorophenyl)cyclopropyl)amino)phos-phoryl)amino)-2-methylpropanoate and isopropyl 2-(((S)-((((R)-1-(6-amino-9H-purin-9-yl)propan-2-yl)oxy)methyl)((1-(4-chlorophenyl)cyclopropyl)amino)phos-phoryl)amino)-2-methylpropanoate], the IC50 worked out at 110 nM under setting [1] and 720 nM under setting [2].

`CCCOC(=O)C(C)(C)N[P@@](=O)(CO[C@H](C)Cn1cnc2c(N)ncnc21)N[C@@H](C)c1cccc(F)c1` [Example 10B, propyl 2-(((R)-((((R)-1-(6-amino-9H-purin-9-yl)propan-2-yl)oxy)methyl)(((S)-1-(3-fluorophenyl)ethyl)amino)phosphoryl)ami-no)-2-methylpropanoate and propyl 2-(((S)-((((R)-1-(6-amino-9H-purin-9-yl)propan-2-yl)oxy)methyl)(((S)-1-(3-fluorophenyl)ethyl)amino)phosphoryl)ami-no)-2-methylpropanoate]: the IC50 runs as follows: under setting [1], 99 nM; under setting [2], 490 nM.

Consider `CCCOC(=O)C(C)(C)N[P@@](=O)(CO[C@H](C)Cn1cnc2c(N)ncnc21)N[C@@H](c1ccc(C#N)cc1)C(F)(F)F.CCCOC(=O)C(C)(C)N[P@](=O)(CO[C@H](C)Cn1cnc2c(N)ncnc21)N[C@@H](c1ccc(C#N)cc1)C(F)(F)F` (mixture of isomers) [Example 24B, propyl 2-(((R)-((((R)-1-(6-amino-9H-purin-9-yl)propan-2-yl)oxy)methyl)(((S)-1-(4-cyanophenyl)-2,2,2-trifluoroethyl)amino)phosphoryl)amino)-2-methylpropanoate and propyl 2-(((S)-((((R)-1-(6-amino-9H-purin-9-yl)propan-2-yl)oxy)methyl)(((S)-1-(4-cyanophenyl)-2,2,2-trifluoroethyl)amino)phosphoryl)amino)-2-methylpropanoate], for which the IC50 under setting [1] was determined as 22 nM and the IC50 under setting [2] came to 170 nM.

On to `CCCOC(=O)C(C)(C)NP(=O)(CO[C@H](C)Cn1cnc2c(N)ncnc21)N[C@H](C)c1ccc(OC(F)(F)F)cc1` (some centres unmarked) [Example 3A], for which the IC50 by setting is: under setting [3], 80 nM; under setting [4], 780 nM.

In the case of `CCCOC(=O)C(C)(C)N[P@@](=O)(CO[C@H](C)Cn1cnc2c(N)ncnc21)N[C@H](c1ccc(OC(F)(F)F)cc1)C(F)(F)F` (single isomer, unassigned) [Example 27B], the IC50 is 52 nM under setting [1] and 250 nM under setting [2].

Regarding `CCCOC(=O)C(C)(C)N[P@@](=O)(CO[C@H](C)Cn1cnc2c(N)ncnc21)N[C@H](C)c1ccc(OC)cc1` [Example 15B, propyl 2-(((R)-((((R)-1-(6-amino-9H-purin-9-yl)propan-2-yl)oxy)methyl)(((R)-1-(4-methoxyphenyl)ethyl)amino)phosphoryl)a-mino)-2-methylpropanoate and propyl 2-(((S)-((((R)-1-(6-amino-9H-purin-9-yl)propan-2-yl)oxy)methyl)(((R)-1-(4-methoxyphenyl)ethyl)amino)phosphoryl)a-mino)-2-methylpropanoate], the IC50 was found to be 7.4 nM under setting [1] and 40 nM under setting [2].
